Values of other authors in patent publication US8246984B2, “Formulation of insoluble small molecule therapeutics in lipid-based carriers” (Rigel Pharmaceuticals, Inc., priority 2005, dated 2012).

Conditions: transition temperature, gel to liquid crystalline phase

Tm [°C]	Compound
23	CCCCCCCCCCCCCC(=O)OC[C@H](COP(=O)([O-])OCC[N+](C)(C)C)OC(=O)CCCCCCCCCCCCC [Dimyristoylphosphatidylcholine]
−22	CCCCCCCC/C=C\CCCCCCCC(=O)OC[C@H](COP(=O)([O-])OCC[N+](C)(C)C)OC(=O)CCCCCCC/C=C\CCCCCCCC [Dioleoylphosphatidylcholine, 1,2-dioleoyl-sn-glycero-3-phosphocholine]
55	CCCCCCCCCCCCCCCCCC(=O)OC[C@H](COP(=O)([O-])OCC[N+](C)(C)C)OC(=O)CCCCCCCCCCCCCCCCC [Distearoylphosphatidylcholine]
41	CCCCCCCCCCCCCCCC(=O)OC[C@H](COP(=O)([O-])OCC[N+](C)(C)C)OC(=O)CCCCCCCCCCCCCCC [Dipalmitoylphosphatidylcholine]
